Patent publication US9937183B2, “Antimicrobial compounds and methods of making and using the same” (priority 2013, dated 2018)
≈ marks a conversion by molar mass, not a printed value. Like-named read-outs stand apart in the source and are kept apart here.

Tests used:
Assay type in all cases: cell-based
E. coli ATCC25922 = experiment: MIC, microtiter-based liquid assay (CLSI); conditions: Escherichia coli
E. coli 1705878 = experiment: MIC, microtiter-based liquid assay (CLSI); conditions: Escherichia coli, MDR strain
E. coli MG1655 parent = experiment: MIC, microtiter-based liquid assay (CLSI); conditions: Escherichia coli
E. coli CAG12184 TolC = experiment: MIC, microtiter-based liquid assay (CLSI); conditions: Escherichia coli, CAG12184TOLC
[1] = system: S. pneumoniae 02J1175 Mef(A); experiment: MIC, microtiter-based liquid assay (CLSI); conditions: Streptococcus pneumoniae
S. aureus 11540 MRSA = experiment: MIC, microtiter-based liquid assay (CLSI); conditions: Staphylococcus aureus
K. pneumoniae 1705949 = experiment: MIC, microtiter-based liquid assay (CLSI); conditions: Klebsiella pneumoniae, MDR strain
K. pneumoniae 1705966 = experiment: MIC, microtiter-based liquid assay (CLSI); conditions: Klebsiella pneumoniae
A. baumannii 1705936 = experiment: MIC, microtiter-based liquid assay (CLSI); conditions: Acinetobacter baumannii, MDR strain
A. baumannii 1705943 = experiment: MIC, microtiter-based liquid assay (CLSI); conditions: Acinetobacter baumannii
P. aeruginosa ATCC27853 = experiment: MIC, microtiter-based liquid assay (CLSI); conditions: Pseudomonas aeruginosa
P. aeruginosa 1705886 = experiment: MIC, microtiter-based liquid assay (CLSI); conditions: Pseudomonas aeruginosa
P. aeruginosa 1705904 = experiment: MIC, microtiter-based liquid assay (CLSI); conditions: Pseudomonas aeruginosa, MDR strain
[2] = system: E. faecium A6349 VanA + LNZ-R; experiment: MIC, microtiter-based liquid assay (CLSI); conditions: Enterococcus faecium
B. anthracis = experiment: microbe, parasite or virus in culture; conditions: Bacillus anthracis; for MIC50: read-out: B. anthracis MIC50; for MIC90: read-out: B. anthracis MIC90; for MIC: read-out: B. anthracis MIC Range
Y. pestis = experiment: microbe, parasite or virus in culture; conditions: Yersinia pestis; for MIC50: read-out: Y. pestis MIC50; for MIC90: read-out: Y. pestis MIC90; for MIC: read-out: Y. pestis MIC Range
B. mallei = experiment: microbe, parasite or virus in culture; conditions: Burkholderia mallei; for MIC50: read-out: B. mallei MIC50; for MIC90: read-out: B. mallei MIC90; for MIC: read-out: B. mallei MIC Range
F. tularensis = experiment: microbe, parasite or virus in culture; conditions: Francisella tularensis; for MIC50: read-out: F. tularensis MIC50; for MIC90: read-out: F. tularensis MIC90; for MIC: read-out: F. tularensis MIC Range
B. pseudomallei = experiment: microbe, parasite or virus in culture; conditions: Burkholderia pseudomallei; for MIC50: read-out: B. pseudomallei MIC50; for MIC90: read-out: B. pseudomallei MIC90; for MIC: read-out: B. pseudomallei MIC Range
[3] = ATCC25922, read-out: MIC E. coli ATCC25922 + 50% HS
[4] = ATCC25922, read-out: MIC E. coli ATCC25922

Structure (SMILES)	MIC (E. coli ATCC25922; [3]) [µg/mL]	MIC (E. coli ATCC25922; [4]) [µg/mL]	MIC (E. coli 1705878) [µg/mL]	MIC (E. coli MG1655 parent) [µg/mL]	MIC (E. coli CAG12184 TolC) [µg/mL]	MIC [1] [µg/mL]	MIC (S. aureus 11540 MRSA) [µg/mL]	MIC (K. pneumoniae 1705949) [µg/mL]	MIC (K. pneumoniae 1705966) [µg/mL]	MIC (A. baumannii 1705936) [µg/mL]	MIC (A. baumannii 1705943) [µg/mL]	MIC (P. aeruginosa ATCC27853) [µg/mL]	MIC (P. aeruginosa 1705886) [µg/mL]	MIC (P. aeruginosa 1705904) [µg/mL]	MIC [2] [µg/mL]	MIC50 (B. anthracis) [µg/mL]	MIC90 (B. anthracis) [µg/mL]	MIC (B. anthracis) [µg/mL]	MIC50 (Y. pestis) [µg/mL]	MIC90 (Y. pestis) [µg/mL]	other results
COC[C@H](N)CCCc1cc(Cl)c(F)c(-c2cc3cn(-c4ccc(CNCCCNC(=N)N)cc4)c(=O)nc3[nH]2)c1 [Compound 6]	0.25	0.5 (≈ 0.857 µM)	1 (≈ 1.71 µM)	0.25 (≈ 0.429 µM)	0.25 (≈ 0.429 µM)	0.25 (≈ 0.429 µM)	0.25 (≈ 0.429 µM)	2 (≈ 3.43 µM)	0.5 (≈ 0.857 µM)	4 (≈ 6.86 µM)	0.25 (≈ 0.429 µM)	8 (≈ 13.7 µM)	4 (≈ 6.86 µM)	8 (≈ 13.7 µM)	4	0.5 (≈ 0.857 µM)	0.5 (≈ 0.857 µM)	0.06 to 1 (≈ 0.103 to 1.71 µM)	0.25 (≈ 0.429 µM)	> 16	MIC50 (B. mallei): ≤ 0.03 µg/mL; MIC90 (B. mallei): 0.12 µg/mL (≈ 0.206 µM); MIC (B. mallei): 0.03 to 0.5 µg/mL (≈ 0.0514 to 0.857 µM); MIC50 (F. tularensis): ≤ 0.03 µg/mL; MIC90 (F. tularensis): 0.06 µg/mL (≈ 0.103 µM); MIC (F. tularensis): 0.03 to 1 µg/mL (≈ 0.0514 to 1.71 µM); MIC50 (B. pseudomallei): 8 µg/mL (≈ 13.7 µM); MIC90 (B. pseudomallei): 16 µg/mL (≈ 27.4 µM); MIC (B. pseudomallei): 1 to 32 µg/mL (≈ 1.71 to 54.9 µM)
C[C@H](NCCCNC(=N)N)c1ccc(-n2cc3cc(-c4cc(CCC[C@@H](N)CF)cc(Cl)c4F)[nH]c3nc2=O)cc1 [Compound 17]	0.5	0.25 (≈ 0.427 µM)	2 (≈ 3.42 µM)	1 (≈ 1.71 µM)	0.125 (≈ 0.214 µM)	0.125 (≈ 0.214 µM)	0.25 (≈ 0.427 µM)	1 (≈ 1.71 µM)	0.125 (≈ 0.214 µM)	1 (≈ 1.71 µM)	0.25 (≈ 0.427 µM)	8 (≈ 13.7 µM)	4 (≈ 6.84 µM)	8 (≈ 13.7 µM)	0.5	0.25 (≈ 0.427 µM)	0.25 (≈ 0.427 µM)	0.03 to 0.5 (≈ 0.0513 to 0.855 µM)	0.25 (≈ 0.427 µM)	0.5 (≈ 0.855 µM)	MIC (Y. pestis): 0.03 to 0.5 µg/mL (≈ 0.0513 to 0.855 µM); MIC50 (B. mallei): 0.06 µg/mL (≈ 0.103 µM); MIC90 (B. mallei): 0.25 µg/mL (≈ 0.427 µM); MIC (B. mallei): 0.03 to 0.25 µg/mL (≈ 0.0513 to 0.427 µM); MIC50 (F. tularensis): ≤ 0.03 µg/mL; MIC90 (F. tularensis): 0.12 µg/mL (≈ 0.205 µM); MIC (F. tularensis): 0.03 to 1 µg/mL (≈ 0.0513 to 1.71 µM); MIC50 (B. pseudomallei): 8 µg/mL (≈ 13.7 µM); MIC90 (B. pseudomallei): 16 µg/mL (≈ 27.3 µM); MIC (B. pseudomallei): 1 to 16 µg/mL (≈ 1.71 to 27.3 µM)
C=C[C@@H](NCCCNC(=N)N)c1ccc(-n2cc3cc(-c4cc(CCC[C@H](C)N)cc(Cl)c4F)[nH]c3nc2=O)cc1 [Compound 11]	0.5	0.25 (≈ 0.432 µM)	0.5 (≈ 0.863 µM)	0.25 (≈ 0.432 µM)	0.25 (≈ 0.432 µM)	2 (≈ 3.45 µM)	0.5 (≈ 0.863 µM)	8 (≈ 13.8 µM)	1 (≈ 1.73 µM)	1 (≈ 1.73 µM)	0.25 (≈ 0.432 µM)	4 (≈ 6.91 µM)	4 (≈ 6.91 µM)	8 (≈ 13.8 µM)	4	0.25 (≈ 0.432 µM)	0.5 (≈ 0.863 µM)	0.12 to 0.5 (≈ 0.207 to 0.863 µM)	≤ 0.03	0.12 (≈ 0.207 µM)	MIC (Y. pestis): 0.03 to 0.5 µg/mL (≈ 0.0518 to 0.863 µM); MIC50 (B. mallei): ≤ 0.03 µg/mL; MIC90 (B. mallei): 0.12 µg/mL (≈ 0.207 µM); MIC (B. mallei): 0.03 to 0.25 µg/mL (≈ 0.0518 to 0.432 µM); MIC50 (F. tularensis): 0.06 µg/mL (≈ 0.104 µM); MIC90 (F. tularensis): 0.25 µg/mL (≈ 0.432 µM); MIC (F. tularensis): 0.03 to 4 µg/mL (≈ 0.0518 to 6.91 µM); MIC50 (B. pseudomallei): 1 µg/mL (≈ 1.73 µM); MIC90 (B. pseudomallei): 4 µg/mL (≈ 6.91 µM); MIC (B. pseudomallei): 0.25 to 8 µg/mL (≈ 0.432 to 13.8 µM)
C=CCC[C@H](NCCCNC(=N)N)c1ccc(-n2cc3cc(-c4cc(CCC[C@H](C)N)cc(Cl)c4F)[nH]c3nc2=O)cc1 [Compound 14]	2	0.5 (≈ 0.823 µM)	1 (≈ 1.65 µM)	1 (≈ 1.65 µM)	0.5 (≈ 0.823 µM)	0.5 (≈ 0.823 µM)	0.5 (≈ 0.823 µM)	1 (≈ 1.65 µM)	0.5 (≈ 0.823 µM)	0.5 (≈ 0.823 µM)	0.5 (≈ 0.823 µM)	4 (≈ 6.59 µM)	2 (≈ 3.29 µM)	4 (≈ 6.59 µM)	1	0.25 (≈ 0.412 µM)	0.25 (≈ 0.412 µM)	0.03 to 0.5 (≈ 0.0494 to 0.823 µM)	0.12 (≈ 0.198 µM)	0.5 (≈ 0.823 µM)	MIC (Y. pestis): 0.03 to 0.5 µg/mL (≈ 0.0494 to 0.823 µM); MIC50 (B. mallei): ≤ 0.03 µg/mL; MIC90 (B. mallei): 0.25 µg/mL (≈ 0.412 µM); MIC (B. mallei): 0.03 to 0.5 µg/mL (≈ 0.0494 to 0.823 µM); MIC50 (F. tularensis): 0.06 µg/mL (≈ 0.0988 µM); MIC90 (F. tularensis): 0.25 µg/mL (≈ 0.412 µM); MIC (F. tularensis): 0.03 to 2 µg/mL (≈ 0.0494 to 3.29 µM); MIC50 (B. pseudomallei): 2 µg/mL (≈ 3.29 µM); MIC90 (B. pseudomallei): 4 µg/mL (≈ 6.59 µM); MIC (B. pseudomallei): 0.25 to 8 µg/mL (≈ 0.412 to 13.2 µM)
